Results on 11 molecules are retold here after ChEMBL document CHEMBL1149567, “Synthesis and pharmacological evaluation of condensed heterocyclic 6-substituted-1,2,4-triazolo[3,4-b]-1,3,4-thiadiazole derivatives of naproxen” (Bioorg Med Chem Lett, 2007).

Each structure is given as a SMILES string.

For series [1], the species on record is Rattus norvegicus. Description: Effect on lipid peroxidation in rat gastric mucosa assessed as malondialdehyde level per 100 mg of tissue. It counts as functional, organism-based.
Series [2] deals with Rattus norvegicus. Description: Antiinflammatory activity against carrageenan-induced paw edema in rat at 30 mg/kg, po after 4 hrs. The following applies: read-out: Inhibition.
Series [3] deals with Rattus norvegicus. Description: Analgesic activity in rat at 30 mg/kg, po. The following applies: read-out: Inhibition.
Series [4] concerns Rattus norvegicus. Description: Antiinflammatory activity against carrageenan-induced paw edema in po dosed rat after 4 hrs. It counts as functional. In general terms: The carrageenan paw model is a standard test of acute inflammation.
The subject of series [5] is Rattus norvegicus. Description: Toxicity assessed as ulcerogenic activity in po dosed rat. It is filed as organism-based. The settings on record: in vivo.
The test system of series [6] is Rattus norvegicus. Description: Analgesic activity in po dosed rat. It counts as functional.

As a reminder, the Inhibition is the relative decrease from the control value, in per cent. A lower Inhibition goes with a weak effect.

For `COc1ccc2cc([C@H](C)C(=O)O)ccc2c1` [NAPROXEN], in the series listed under Rattus norvegicus [1], the Activity was 9.04 nmol. For the same molecule, the results for the inhibition in vivo at 30 mg/kg with Rattus norvegicus [2] and in the series with Rattus norvegicus [3] were 81.8% and 73.5%, respectively.

Consider `COc1ccc2cc(C(C)c3nnc4sc(Nc5ccccc5)nn34)ccc2c1` (stereo unspecified), for which the Inhibition in the series on Rattus norvegicus [4] is recorded as 43.93%.

In turn, `COc1ccc2cc(C(C)c3nnc4sc(Nc5ccc(F)cc5)nn34)ccc2c1` (stereo unspecified) came in with an Inhibition in the series with Rattus norvegicus [4] of 40.14%.

`COc1ccc2cc(C(C)c3nnc4sc(Nc5ccc(C)cc5C)nn34)ccc2c1` (stereo unspecified): the Activity in the series listed under Rattus norvegicus [1] came to 6.11 nmol. In addition, the values for the Inhibition in the series with Rattus norvegicus [4] and in the series on Rattus norvegicus [6] were 76.51% and 33.3%, respectively. For the same molecule, in the series with Rattus norvegicus [5], the UI came to 0.833.

`COc1ccc2cc(C(C)c3nnc4sc(-c5ccc(Cl)cc5Cl)nn34)ccc2c1` (stereo unspecified): the Activity in the series filed under Rattus norvegicus [1] stood at 5.63 nmol. Also, the Inhibition in the series on Rattus norvegicus [4] was 68.93%; with Rattus norvegicus [6], 37.2%. For the same molecule, in the series on Rattus norvegicus [5], the UI was 0.75.

For the molecule `COc1ccc2cc(C(C)c3nnc4sc(COc5ccc(Cl)cc5Cl)nn34)ccc2c1` (stereo unspecified), the Activity in the series filed under Rattus norvegicus [1] was determined as 5.38 nmol. The figures for the Inhibition in the series on Rattus norvegicus [4] and in the series on Rattus norvegicus [6] were 78.02% and 80.3%, respectively. Also, in the series on Rattus norvegicus [5], the UI is given as 0.667.

The molecule `CCCCNc1nn2c(C(C)c3ccc4cc(OC)ccc4c3)nnc2s1` (stereo unspecified) returned an Inhibition in the series with Rattus norvegicus [4] of 40.9%.

As for `COc1ccc2cc(C(C)c3nnc4sc(-c5ccccc5N)nn34)ccc2c1` (stereo unspecified), the Inhibition with Rattus norvegicus [4] stood at 54.54%.

As for `COc1ccc2cc(C(C)c3nnc4sc(-c5ccccc5)nn34)ccc2c1` (stereo unspecified), the Activity in the series filed under Rattus norvegicus [1] was 4.86 nmol. Further, the Inhibition with Rattus norvegicus [4] is 81.05%; in the series with Rattus norvegicus [6], 89.5%. In the series on Rattus norvegicus [5], the UI is recorded as 0.5.

Take `COc1ccc2cc(C(C)c3nnc4sc(-c5ccc(Cl)cc5)nn34)ccc2c1` (stereo unspecified): the Activity in the series listed under Rattus norvegicus [1] came to 5.27 nmol. For the same molecule, the Inhibition is 80.3% with Rattus norvegicus [4] and 26.7% in the series with Rattus norvegicus [6]. Besides, in the series on Rattus norvegicus [5], the UI is listed as 0.583.

For the molecule `COc1ccc2cc(C(C)c3nnc4sc(-c5ccc(N)cc5)nn34)ccc2c1` (stereo unspecified), in the series listed under Rattus norvegicus [1], the Activity was found to be 5.85 nmol. Moreover, the Inhibition in the series on Rattus norvegicus [4] turned out to be 78.02%; in the series with Rattus norvegicus [6], 58.1%. Also, the UI in the series with Rattus norvegicus [5] was 0.833.
